Reference: US9907800B2, “Kinase inhibitors and method of treating cancer” (University Health Network, priority 2010, dated 2018)
Counter-ions that a name gives are not always drawn.

Experiments:
Aurora B = Aurora B (Homo sapiens (Human), UniProt Q96GD4); assay: Aurora B inhibition assay (Z-Lyte); assay type: biochemical; details: read-out: Aurora B IC50 Ranges
human PLK4 = human PLK4 (Homo sapiens (Human), UniProt O00444); assay: PLK4 inhibition assay (indirect ELISA); assay type: biochemical; details: read-out: PLK4 IC50 Ranges
Sequence of human PLK4 (O00444 1-391): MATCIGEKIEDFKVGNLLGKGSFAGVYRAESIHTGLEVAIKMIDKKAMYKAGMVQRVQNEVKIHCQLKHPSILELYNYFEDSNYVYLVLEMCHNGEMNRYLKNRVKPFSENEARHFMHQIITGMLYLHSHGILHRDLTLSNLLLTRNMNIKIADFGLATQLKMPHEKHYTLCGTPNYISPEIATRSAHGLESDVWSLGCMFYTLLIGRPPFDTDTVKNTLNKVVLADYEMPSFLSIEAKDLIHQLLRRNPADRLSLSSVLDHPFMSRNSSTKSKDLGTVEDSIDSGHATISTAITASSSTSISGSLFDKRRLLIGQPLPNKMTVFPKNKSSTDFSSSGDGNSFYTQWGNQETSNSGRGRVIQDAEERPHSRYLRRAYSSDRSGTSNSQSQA

Sequence of Aurora B (Q96GD4 whole entry): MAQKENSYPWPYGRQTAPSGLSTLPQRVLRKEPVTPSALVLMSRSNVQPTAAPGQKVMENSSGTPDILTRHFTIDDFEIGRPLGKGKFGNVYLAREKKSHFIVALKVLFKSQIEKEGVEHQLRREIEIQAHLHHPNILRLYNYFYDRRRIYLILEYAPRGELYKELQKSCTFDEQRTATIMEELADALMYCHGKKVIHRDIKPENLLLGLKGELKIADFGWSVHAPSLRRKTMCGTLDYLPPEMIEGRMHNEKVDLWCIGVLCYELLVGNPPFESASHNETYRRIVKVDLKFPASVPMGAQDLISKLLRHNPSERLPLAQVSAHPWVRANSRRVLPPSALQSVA

Row | Structure (SMILES) | IC50 (Aurora B) [nM] | IC50 (human PLK4) [nM]
1 | COc1ccc2c(c1)[C@]1(C[C@H]1c1ccc3c(/C=C/c4cccc(CN5CCOCC5)c4)n[nH]c3c1)C(=O)N2 (relative stereo) [Example A133, (1R*,2S*)-5′-methoxy-2-(3-(3-(morpholinomethyl)styryl)-1H-indazol-6-yl)spiro[cyclopropane-1,3′-indolin]-2′-one 2,2,2-trifluoroacetate] | < 100 | < 100
2 | COc1ccc2c(c1)[C@]1(C[C@H]1c1ccc3c(/C=C/c4cccc(CN(C)C)c4)n[nH]c3c1)C(=O)N2 (relative stereo) [Example A135, (1R*,2S*)-2-(3-(3-((dimethylamino)methyl)styryl-1H-indazol-6-yl)-5′-methoxyspiro[cyclopropane-1,3′-indolin]-2′-one 2,2,2-trifluoroacetate] | < 100 | < 100
3 | COc1ccc2c(c1)[C@]1(C[C@H]1c1ccc3c(-c4ccc(CCN5CCOCC5)cc4)n[nH]c3c1)C(=O)N2 (relative stereo) [Example A159, (1R*,2S*)-5′-methoxy-2-(3-(4-(2-morpholinoethyl)phenyl)-1H-indazol-6-yl)spiro[cyclopropane-1,3′-indolin]-2′-one 2,2,2-trifluoroacetate] | < 100 | < 100
4 | COCCN1C(=O)[C@@]2(C[C@H]2c2ccc3c(/C=C/c4ccc(CN(C)C)cc4)n[nH]c3c2)c2ccccc21 (relative stereo) [Example A180, (1R*,2S*)-(E)-2-(3-(4-((dimethylamino)methyl)styryl)-1H-indazol-6-yl)-1′-(2-methoxyethyl)spiro[cyclopropane-1,3′-indolin]-2′-one 2,2,2-trifluoroacetate] | < 100 | < 100
5 | COc1ccc2c(c1)[C@]1(C[C@H]1c1ccc3c(I)n[nH]c3c1)C(=O)N2 [Example A7, (1R,2S)-2-(3-iodo-1H-indazol-6-yl)-5′-methoxyspiro[cyclopropane-1,3′-indolin]-2′-one] | 100 to 1000 | < 100
6 | COc1ccc2c(c1)[C@@]1(C[C@@H]1c1ccc3c(-c4ccc(N5CCN(C)CC5)nc4)n[nH]c3c1)C(=O)N2 [Example A15, (1S,2R)-5′-methoxy-2-(3-(6-(4-methylpiperazin-1-yl)pyridin-3-yl)-1H-indazol-6-yl)spiro[cyclopropane-1,3′-indolin]-2′-one] | > 1000 | < 100
7 | COc1ccc2c(c1)[C@@]1(C[C@@H]1c1ccc3c(-c4ccc(N5CCNCC5)cc4)n[nH]c3c1)C(=O)N2 [Example A50, (1S,2R)-5′-methoxy-2-(3-(4-(piperazin-1-yl)phenyl)-1H-indazol-6-yl)spiro[cyclopropane-1,3′-indolin]-2′-one 2,2,2-trifluoroacetate] | < 100 | < 100
8 | COc1ccc2c(c1)[C@]1(C[C@H]1c1ccc3c(/C=C/c4ccc5c(c4)CN(C)CC5)n[nH]c3c1)C(=O)N2 [Example A64, (1R,2S)-5′-methoxy-2-(3-((E)-2-(2-methyl-1,2,3,4-tetrahydroisoquinolin-7-yl)vinyl)-1H-indazol-6-yl)spiro[cyclopropane-1,3′-indolin]-2′-one 2,2,2-trifluoroacetate salt] | < 100 | < 100
9 | CN1CCc2ccc(/C=C/c3n[nH]c4cc([C@@H]5C[C@@]56C(=O)Nc5ccccc56)ccc34)cc2C1 [Example A65, (1R,2S)-2-(3-((E)-2-(2-methyl-1,2,3,4-tetrahydroisoquinolin-7-yl)vinyl)-1H-indazol-6-yl)spiro[cyclopropane-1,3′-indolin]-2′-one 2,2,2-trifluoroacetate salt] | < 100 | < 100
10 | COc1ccc2c(c1)[C@]1(C[C@H]1c1ccc3c(/C=C/c4ccc5c(c4)CNCC5)n[nH]c3c1)C(=O)N2 [Example A66, (1R,2S)-5′-methoxy-2-(3-((E)-2-(1,2,3,4-tetrahydroisoquinolin-7-yl)vinyl)-1H-indazol-6-yl)spiro[cyclopropane-1,3′-indolin]-2′-one 2,2,2-trifluoroacetate salt] | < 100 | < 100
11 | COc1ccc2c(c1)[C@]1(C[C@H]1c1ccc3c(-c4ccc(OCCN(C)C)cc4)n[nH]c3c1)C(=O)N2 [Example A69, (1R,2S)-2-(3-(4-(2-(dimethylamino)ethoxy)phenyl)-1H-indazol-6-yl)-5′-methoxyspiro[cyclopropane-1,3′-indolin]-2′-one 2,2,2-trifluoroacetate salt] | < 100 | < 100
12 | CN1CCc2cc(-c3n[nH]c4cc([C@@H]5C[C@@]56C(=O)Nc5ccccc56)ccc34)ccc2C1 [Example A76, (1R,2S)-2-(3-(2-methyl-1,2,3,4-tetrahydroisoquinolin-6-yl)-1H-indazol-6-yl)spiro[cyclopropane-1,3′-indolin]-2′-one 2,2,2-trifluoroacetate salt] | < 100 | < 100

Further lines, results first:

Row | IC50 (Aurora B) [nM] | IC50 (human PLK4) [nM] | Structure (SMILES)
13 | < 100 | < 100 | COc1ccc2c(c1)[C@]1(C[C@H]1c1ccc3c(-c4ccc(N5CCN(C)CC5)nc4)n[nH]c3c1)C(=O)N2C (relative stereo) [Example A104, (1R*,2S*)-5′-methoxy-1′-methyl-2-(3-(6-(4-methylpiperazin-1-yl)pyridin-3-yl)-1H-indazol-6-yl)spiro[cyclopropane-1,3′-indolin]-2′-one bis(2,2,2-trifluoroacetate)]
14 | 100 to 1000 | < 100 | NS(=O)(=O)c1cccc(-c2n[nH]c3cc([C@@H]4C[C@@]45C(=O)Nc4ccccc45)ccc23)c1 (relative stereo) [Example A130, 3-(6-((1R*,2S*)-2′-oxospiro[cyclopropane-1,3′-indoline]-2-yl)-1H-indazol-3-yl)benzenesulfonamide]
15 | < 100 | < 100 | CCc1ccc2c(c1)[C@]1(C[C@H]1c1ccc3c(-c4ccc(N5CCN(C)CC5)cc4)n[nH]c3c1)C(=O)N2 (relative stereo) [Example A142, (1R*,2S*)-5′-ethyl-2-(3-(4-(4-methylpiperazin-1-yl)phenyl)-1H-indazol-6-yl)spiro[cyclopropane-1,3′-indolin]-2′-one 2,2,2-trifluoroacetate]
16 | < 100 | < 100 | CN(C)Cc1ccc(/C=C/c2n[nH]c3cc([C@@H]4C[C@@]45C(=O)N(CC(N)=O)c4ccccc45)ccc23)cc1 (relative stereo) [Example A160, 2-((1R*,2S*)-(E)-2-(3-(4-((dimethylamino)methyl)styryl)-1H-indazol-6-yl)-2′-oxospiro[cyclopropane-1,3′-indoline]-1′-yl)acetamide 2,2,2-trifluoroacetate]
17 | < 100 | < 100 | Cc1ccc2c(c1)[C@]1(C[C@H]1c1ccc3c(-c4ccc(N5CCN(C)CC5)cc4)n[nH]c3c1)C(=O)N2 (relative stereo) [Example A173, (1R*,2S)-5′-methyl-2-(3-(4-(4-methylpiperazin-1-yl)phenyl)-1H-indazol-6-yl)spiro[cyclopropane-1,3′-indolin]-2′-one 2,2,2-trifluoroacetate]
18 | < 100 | < 100 | COc1ccc2c(c1)[C@]1(C[C@H]1c1ccc3c(/C=C/c4ccc(N5CCN(C)CC5)cc4)n[nH]c3c1)C(=O)N2 (relative stereo) [Example A174, (1R*,2S*)-(E)-5′-methoxy-2-(3-(4-(4-methylpiperazin-1-yl)styryl)-1H-indazol-6-yl)spiro[cyclopropane-1,3′-indolin]-2′-one 2,2,2-trifluoroacetate]
19 | < 100 | < 100 | COc1ccc2c(c1)[C@]1(C[C@H]1c1ccc3c(/C=C/c4csc(CN(C)C)c4)n[nH]c3c1)C(=O)N2 (relative stereo) [Example A181, (1R,2S)-2-(3-((E)-2-(5-((dimethylamino)methyl)thiophen-3-yl)vinyl-1H-indazol-6-yl)-5′-methoxyspiro[cyclopropane-1,3′-indolin]-2′-one 2,2,2-trifluoro acetate]
20 | < 100 | < 100 | COc1ccc2c(c1)[C@]1(C[C@H]1c1ccc3c(-c4ccc(OCCN5CCCCC5)cc4)n[nH]c3c1)C(=O)N2 [Example A67, (1R,2S)-5′-methoxy-2-(3-(4-(2-(piperidin-1-yl)ethoxy)phenyl)-1H-indazol-6-yl)spiro[cyclopropane-1,3′-indolin]-2′-one 2,2,2-trifluoroacetate salt]
21 | < 100 | < 100 | COc1ccc2c(c1)[C@]1(C[C@H]1c1ccc3c(-c4ccc5c(c4)CN(C)CC5)n[nH]c3c1)C(=O)N2 [Example A70, (1R,2S)-5′-methoxy-2-(3-(2-methyl-1,2,3,4-tetrahydroisoquinolin-7-yl)-1H-indazol-6-yl)spiro[cyclopropane-1,3′-indolin]-2′-one 2,2,2-trifluoroacetate salt]
22 | < 100 | < 100 | COc1ccc2c(c1)[C@]1(C[C@H]1c1ccc3c(/C=C/c4ccc(CN5CCCOCC5)cc4)n[nH]c3c1)C(=O)N2 [Example A73, (1R,2S)-(E)-2-(3-(4-((1,4-oxazepan-4-yl)methyl)styryl)-1H-indazol-6-yl)-5′-methoxyspiro[cyclopropane-1,3′-indolin]-2′-one 2,2,2-trifluoroacetate salt]
23 | < 100 | < 100 | CN1CCc2cc(/C=C/c3n[nH]c4cc([C@@H]5C[C@@]56C(=O)Nc5ccccc56)ccc34)ccc2C1 [Example A74, (1R,2S)-2-(3-((E)-2-(2-methyl-1,2,3,4-tetrahydroisoquinolin-6-yl)vinyl)-1H-indazol-6-yl)spiro[cyclopropane-1,3′-indolin]-2′-one 2,2,2-trifluoroacetate salt]
24 | < 100 | < 100 | COc1ccc2c(c1)[C@]1(C[C@H]1c1ccc3c(/C=C/c4ccc5c(c4)CCN(C)C5)n[nH]c3c1)C(=O)N2 [Example A75, (1R,2S)-5′-methoxy-2-(3-((E)-2-(2-methyl-1,2,3,4-tetrahydroisoquinolin-6-yl)vinyl)-1H-indazol-6-yl)spiro[cyclopropane-1,3′-indolin]-2′-one 2,2,2-trifluoroacetate salt]
